Results: US11447481B2, “Microbiocidal oxadiazole derivatives” (SYNGENTA PARTICIPATIONS AG, priority 2017, dated 2022)

Legend:
[1] = test system: Puccinia recondita f. sp. tritici; assay: Fungicidal activity against Puccinia recondita f. sp. tritici / wheat / leaf disc preventative (brown rust); type: in vivo; conditions: foliar, wheat leaf segments, preventative (inoculated 1 day after application), compared to untreated control
Method: (§1) Leaf disks or leaf segments of various plant species are cut from plants grown in a greenhouse. The cut leaf disks or segments are placed in multiwell plates (24-well format) onto water agar. The leaf disks are sprayed with a test solution before (preventative) or after (curative) inoculation. Compounds to be tested are prepared as DMSO solutions (max. 10 mg/ml) which are diluted to the appropriate concentration with 0.025% Tween20 just before spraying. The inoculated leaf disks or segments are incubated under defined conditions (temperature, relative humidity, light, etc.) according to the respective test system. A single evaluation of disease level is carried out 3 to 14 days after inoculation, depending on the pathosystem. Percent disease control relative to the untreated check leaf disks or segments is then calculated.
(§2) Wheat leaf segments cv. Kanzler are placed on agar in multiwell plates (24-well format) and sprayed with the formulated test compound diluted in water. The leaf disks are inoculated with a spore suspension of the fungus 1 day after application. The inoculated leaf segments are incubated at 19° C. and 75% rh under a light regime of 12 h light/12 h darkness in a climate cabinet and the activity of a compound is assessed as percent disease control compared to untreated when an appropriate level of disease damage appears in untreated check leaf segments (7-9 days after application).

[2] = test system: Puccinia recondita f. sp. tritici; assay: Fungicidal activity against Puccinia recondita f. sp. tritici / wheat / leaf disc curative (brown rust); type: in vivo; conditions: foliar, 24 h, wheat leaf segments, curative (applied 1 day after inoculation), compared to untreated control
Method: as §1
as §2, with “format).” for “format) and sprayed with the formulated test compound diluted in water.”, “segments” for “disks”, “fungus. Plates are stored in darkness at 19° C. and 75% rh. The formulated test compound diluted in water is applied” for “fungus”, “inoculation.” for “application.”, “The” for “The inoculated”, “(6-8” for “(7-9”

[3] = test system: Glomerella lagenarium (Colletotrichum lagenarium); assay: Fungicidal activity against Glomerella lagenarium (Colletotrichum lagenarium) liquid culture / cucumber / preventative (anthracnose); type: cell-based; conditions: Colletotrichum orbiculare, liquid culture (PDB), growth inhibition measured photometrically 3-4 days after application, compared to untreated control
Method: Mycelia fragments or conidia suspensions of a fungus prepared either freshly from liquid cultures of the fungus or from cryogenic storage, are directly mixed into nutrient broth. DMSO solutions of the test compound (max. 10 mg/ml) are diluted with 0.025% Tween20 by a factor of 50 and 10 µl of this solution is pipetted into a microtiter plate (96-well format). The nutrient broth containing the fungal spores/mycelia fragments is then added to give an end concentration of the tested compound. The test plates are incubated in the dark at 24° C. and 96% relative humidity. The inhibition of fungal growth is determined photometrically after 2 to 7 days, depending on the pathosystem, and percent antifungal activity relative to the untreated check is calculated.
Conidia of the fungus from cryogenic storage are directly mixed into nutrient broth (PDB potato dextrose broth). After placing a (DMSO) solution of test compound into a microtiter plate (96-well format), the nutrient broth containing the fungal spores is added. The test plates are incubated at 24° C. and the inhibition of growth is measured photometrically 3-4 days after application.

[4] = test system: Phakopsora pachyrhizi; assay: Fungicidal activity against Phakopsora pachyrhizi / soybean / leaf disc preventative (Asian soybean rust); type: in vivo; conditions: foliar, soybean leaf disks, compared to untreated control
Method: as §1
Soybean leaf disks are placed on water agar in multiwell plates (24-well format) and sprayed with the formulated test compound diluted in water. One day after application leaf discs are inoculated by spraying a spore suspension on the lower leaf surface. After an incubation period in a climate cabinet of 24-36 hours in darkness at 20° C. and 75% rh leaf disc are kept at 20° C. with 12 h light/day and 75% rh. The activity of a compound is assessed as percent disease control compared to untreated when an appropriate level of disease damage appears in untreated check leaf disks (12-14 days after application).

Compound | melting point [°C] | pest or weed control at 200 ppm [1] [%] | pest or weed control at 200 ppm [2] [%] | inhibition of growth at 20 ppm [3] [%] | pest or weed control at 200 ppm [4] [%]
O=c1ccccn1Cc1ccc(-c2noc(C(F)(F)F)n2)cc1 [Compound C-14, 1-[[4-[5-(trifluoromethyl)-1,2,4-oxadiazol-3-yl]phenyl]methyl]pyridin-2-one] | 142 to 144 | ≥ 80 | ≥ 80 | ≥ 80 | ≥ 80
N#Cc1ccc(=O)n(Cc2ccc(-c3noc(C(F)(F)F)n3)cc2)c1 [Compound C-13, 6-oxo-1-[[4-[5-(trifluoromethylyl)-1,2,4-oxadiazol-3-yl]phenyl]methyl]pyridine-3-carbonitrile] | 174 to 176 | ≥ 80 | ≥ 80 | ≥ 80 | ≥ 80
Cn1nnn(Cc2ccc(-c3noc(C(F)(F)F)n3)cc2)c1=O [Compound B-6, 1-methyl-4-[[4-[5-(trifluoromethyl)-1,2,4-oxadiazol-3-yl]phenyl]methyl]tetrazol-5-one] | 104 to 106 | ≥ 80 | ≥ 80 | ≥ 80 | ≥ 80
O=c1ccc(F)cn1Cc1ccc(-c2noc(C(F)(F)F)n2)cc1 [Compound C-6, 5-fluoro-1-[[4-[5-(trifluoromethyl)-1,2,4-oxadiazol-3-yl]phenyl]methyl]pyridin-2-one] | 125 to 126 | ≥ 80 | ≥ 80 | ≥ 80 | ≥ 80
N#Cc1ccc(=O)n(Cc2ccc(-c3noc(C(F)(F)F)n3)c(F)c2F)c1 [Compound C-11, 1-[[2,3-difluoro-4-[5-(trifluoromethyl)-1,2,4-oxadiazol-3-yl]phenyl]methyl]-6-oxo-pyridine-3-carbonitrile] | 144 to 146 | ≥ 80 | ≥ 80 | ≥ 80 | ≥ 80
Cc1cccn(Cc2ccc(-c3noc(C(F)(F)F)n3)cc2)c1=O [Compound C-8, 3-methyl-1-[[4-[5-(trifluoromethyl)-1,2,4-oxadiazol-3-yl]phenyl]methyl]pyridin-2-one] | 115 to 117 | ≥ 80 | ≥ 80 | ≥ 80 | ≥ 80

Now from value to compound, other results behind:

melting point [°C] | Compound | pest or weed control at 200 ppm [1] [%] | pest or weed control at 200 ppm [2] [%] | inhibition of growth at 20 ppm [3] [%] | pest or weed control at 200 ppm [4] [%]
106.5 to 107.6 | O=c1ccc(Br)nn1Cc1ccc(-c2noc(C(F)(F)F)n2)cc1 [Compound C-2, 6-bromo-2-[[4-[5-(trifluoromethyl)-1,2,4-oxadiazol-3-yl]phenyl]methyl]pyridazin-3-one] | ≥ 80 | ≥ 80 | ≥ 80 | ≥ 80
129 to 130.8 | COc1nn(Cc2ccc(-c3noc(C(F)(F)F)n3)cc2)c(=O)n1C [Compound B-4, 5-methoxy-4-methyl-2-[[4-[5-(trifluoromethyl)-1,2,4-oxadiazol-3-yl]phenyl]methyl]-1,2,4-triazol-3-one] | ≥ 80 | ≥ 80 | ≥ 80 | ≥ 80
174 to 176 | Cc1ccc(=O)n(Cc2ccc(-c3noc(C(F)(F)F)n3)cc2)c1 [Compound C-10, 5-methyl-1-[[4-[5-(trifluoromethyl)-1,2,4-oxadiazol-3-yl]phenyl]methyl]pyridin-2-one] | ≥ 80 | ≥ 80 | ≥ 80 | ≥ 80
156 to 158 | Cc1ccn(Cc2ccc(-c3noc(C(F)(F)F)n3)cc2)c(=O)c1 [Compound C-5, 4-methyl-1-[[4-[5-(trifluoromethyl)-1,2,4-oxadiazol-3-yl]phenyl]methyl]pyridin-2-one] | ≥ 80 | ≥ 80 | ≥ 80 | ≥ 80
88 to 90 | Cc1cccc(=O)n1Cc1ccc(-c2noc(C(F)(F)F)n2)cc1 [Compound C-4, 6-methyl-1-[[4-[5-(trifluoromethyl)-1,2,4-oxadiazol-3-yl]phenyl]methyl]pyridin-2-one] | ≥ 80 | ≥ 80 | ≥ 80 | ≥ 80
